Assay results published in ChEMBL document CHEMBL3880409, “Pharmaceutical compositions and their methods of use” (2008).
Active and inactive are the calls of the source.

Experiments:
[1] = target: T1, Neuronal acetylcholine receptor; alpha4/beta2 (Homo sapiens) (UniProt P17787+P43681); experiment: Positive allosteric modulation at human alpha4beta2 nAChR expressed in HEK293 cells assessed as potentiation of (3R)-1-pyridin-3-ylpyrrolidin-3-amine-induced calcium flux preincubated for 5 mins followed by agonist addition measured for 3 to 5 mins by FLIPR assay relative to control; assay type: cell-based; design: concentration or dose not given beside the values
[2] = target: T1, Neuronal acetylcholine receptor; alpha4/beta2 (Homo sapiens); experiment: Positive allosteric modulation at human alpha4beta2 nAChR expressed in HEK293 cells assessed as potentiation of 5-[(2R)-azetidin-2-ylmethoxy]-2-chloropyridine-induced calcium flux preincubated for 5 mins followed by agonist addition measured for 3 to 5 mins by FLIPR assay relative to control; assay type: cell-based; design: concentration or dose not given beside the values
[3] = system: Rattus norvegicus; experiment: Antinociceptive activity in Sprague-Dawley rat assessed as reversal of tight ligation of L5-L6 spinal nerves-induced mechanical allodynia by measuring paw withdrawal threshold at 500 umol/kg, ip measured after 30 mins; assay type: functional
[4] = Toxicity in ferret assessed as emesis at 3.5 umol/kg after 30 mins measured for 90 mins; design: species or system Mustela putorius furo; conditions: in vivo, 1.5 h
[5] = target: T1, Neuronal acetylcholine receptor; alpha4/beta2 (Homo sapiens); experiment: (§1) Positive allosteric modulation at human alpha4beta2 nAChR expressed in HEK293 cells assessed as potentiation of (3R)-1-pyridin-3-ylpyrrolidin-3-amine-induced calcium flux at 10 uM preincubated for 5 mins followed by agonist addition measured for 3 to 5 mins by FLIPR assay relative to control; assay type: cell-based
[6] = system: Rattus norvegicus; experiment: (§2) Potentiation of 30 umol/kg of (1S,5S)-3-(3,6-diaza-bicyclo[3.2.0]hept-3-yl)-quinoline-induced antinociceptive activity in Sprague-Dawley rat assessed as reversal of tight ligation of L5-L6 spinal nerves-mediated mechanical allodynia by measuring paw withdrawal threshold at 35 umol/kg, ip administered prior to agonist treatment measured after 30 mins; assay type: functional
[7] = system: Rattus norvegicus; experiment: Potentiation of 5-[(2R)-Azetidin-2-yl methoxy]-2-chloropyridine-induced antinociceptive activity in Sprague-Dawley rat assessed as reversal of tight ligation of L5-L6 spinal nerves-mediated mechanical allodynia by measuring paw withdrawal threshold at 10 mg/kg, ip administered prior to agonist treatment measured after 30 mins (reference value: 24%); assay type: functional
[8] = target: T1, Neuronal acetylcholine receptor; alpha4/beta2 (Homo sapiens); experiment: Positive allosteric modulation at human alpha4beta2 nAChR expressed in HEK293 cells assessed as potentiation of varenicline-induced calcium flux preincubated for 5 mins followed by agonist addition measured for 3 to 5 mins by FLIPR assay; assay type: cell-based
[9] = target: T1, Neuronal acetylcholine receptor; alpha4/beta2 (Homo sapiens); experiment: Positive allosteric modulation at human alpha4beta2 nAChR expressed in HEK293 cells assessed as potentiation of (1S,5S)-3-(3,6-diaza-bicyclo[3.2.0]hept-3-yl)-quinoline-induced calcium flux preincubated for 5 mins followed by agonist addition measured for 3 to 5 mins by FLIPR assay; assay type: cell-based
[10] = target: T1, Neuronal acetylcholine receptor; alpha4/beta2 (Homo sapiens); experiment: Positive allosteric modulation at human alpha4beta2 nAChR expressed in HEK293 cells assessed as potentiation of ispronicline-induced calcium flux preincubated for 5 mins followed by agonist addition measured for 3 to 5 mins by FLIPR assay; assay type: cell-based
[11] = system: Rattus norvegicus; experiment: Potentiation of 5-[(2R)-Azetidin-2-yl methoxy]-2-chloropyridine-induced antinociceptive activity in Sprague-Dawley rat assessed as reversal of tight ligation of L5-L6 spinal nerves-mediated mechanical allodynia by measuring increase in paw withdrawal threshold at 3.5 umol/kg, ip administered prior to agonist treatment measured after 30 mins; assay type: functional, organism-based
[12] = Toxicity in ferret assessed as emesis at 3.5 umol/kg administered 30 mins prior to agonist treatment measured for 90 mins in presence of 5-[(2R)-Azetidin-2-yl methoxy]-2-chloropyridine; design: species or system Mustela putorius furo; conditions: in vivo, 1.5 h
[13] = target: T1, Neuronal acetylcholine receptor; alpha4/beta2 (Homo sapiens); experiment: Positive allosteric modulation at human alpha4beta2 nAChR expressed in HEK293 cells assessed as potentiation of 2-methyl-3-(2-(S)-pyrrolidinylmethoxy)pyridine-induced calcium flux preincubated for 5 mins followed by agonist addition measured for 3 to 5 mins by FLIPR assay; assay type: cell-based
[14] = target: T1, Neuronal acetylcholine receptor; alpha4/beta2 (Homo sapiens); experiment: as §1, with “5-[(2R)-azetidin-2-ylmethoxy]-2-chloropyridine-induced” for “(3R)-1-pyridin-3-ylpyrrolidin-3-amine-induced”; assay type: cell-based
[15] = system: Rattus norvegicus; experiment: Potentiation of 5-[(2R)-Azetidin-2-yl methoxy]-2-chloropyridine-induced antinociceptive activity in ip dosed Sprague-Dawley rat assessed as reversal of tight ligation of L5-L6 spinal nerves-mediated mechanical allodynia by measuring paw withdrawal threshold administered prior to agonist treatment measured after 30 mins; assay type: functional
[16] = system: Rattus norvegicus; experiment: as §2, with “of 3” for “of 30”; assay type: functional

| SMILES | Activity [1] [%] | Activity [2] [%] | other results |
| --- | --- | --- | --- |
| N#Cc1cccc(-c2noc(-c3cccnc3)n2)c1 | 200 to 400 | 200 to 400 |  |
| NCC1(CC(=O)O)CCCCC1 [GABAPENTIN] |  |  | Activity [3]: 58% |
| c1cncc(-c2noc(-c3cccnc3)n2)c1 | 200 to 400 | 200 to 400 |  |
| Fc1cccc(-c2nc(-c3cccnc3)no2)c1F | 200 to 400 | 200 to 400 |  |
| CS(=O)(=O)c1cccc(-c2nc(-c3cccnc3)no2)c1 | 120 to 150 | 120 to 150 |  |
| CC(=O)c1cccc(-c2nc(-c3cccnc3)no2)c1 | 150 to 200 | 150 to 200 |  |
| Cc1ccc(-c2noc(-c3cccc(C#N)c3)n2)cn1 | 150 to 200 | 150 to 200 |  |
| NS(=O)(=O)c1cccc(-c2nc(-c3cccnc3)no2)c1 | 200 to 400 | 200 to 400 |  |
| Fc1ccc(-c2nc(-c3cccnc3)no2)cc1F | 200 to 400 | 200 to 400 |  |
| N#Cc1cccc(-c2noc(-c3ccc(Cl)nc3)n2)c1 | 150 to 200 | 150 to 200 |  |
| N#Cc1ccc(-c2nc(-c3cccnc3)no2)cc1 | 150 to 200 | 150 to 200 |  |
| Oc1cncc(-c2nc(-c3cccnc3)no2)c1 | 90 to 120 | 90 to 120 |  |
| N#Cc1cccc(-c2nc(-c3cccnc3)no2)c1 |  |  | Activity [4]: Non-Toxic; Activity [5]: 200 to 400%; fold change (FC) [5]: 10 to 100; Activity [6]: 56%; Activity [7]: 76%; Activity [8]: Active; Activity [9]: Active; Activity [10]: Active; Activity [11]: Active; Activity [12]: Non-Toxic; Activity [13]: Active; Activity [14]: 200 to 400%; fold change (FC) [14]: 10 to 100; Activity [15]: Dose-dependent effect; Activity ([15]; record 2): 33 - 63%; Activity [16]: 41% |
| N#Cc1cccc(-c2noc(-c3ccc(F)nc3)n2)c1 | 150 to 200 | 150 to 200 |  |
| O=c1ccc(-c2noc(-c3cccnc3)n2)c[nH]1 | 120 to 150 | 120 to 150 |  |
| Clc1cc(-c2noc(-c3cccnc3)n2)ccn1 | 120 to 150 | 120 to 150 |  |
| Brc1cncc(-c2nc(-c3cccnc3)no2)c1 | 120 to 150 | 120 to 150 |  |
| c1cc(-c2noc(-c3cccnc3)n2)cc(-c2nnn[nH]2)c1 | 90 to 120 | 90 to 120 |  |
| O=[N+]([O-])c1cccc(-c2nc(-c3cccnc3)no2)c1 | 200 to 400 | 200 to 400 |  |
